Several values for one entry are separate records, joined by “and”; a condition that tells them apart may be missing. Equal entries are not always repeated.
Assay: xn = mol fraction of the nth substance listed
Details: Gas, Buoyancy - hydrostatic balance with magnetic suspension - two sinkers

C [methane] + CCC
Details	mass density
293.15 K, 355.08 kPa, x1 = 0.2658	5.5657 kg/m3 and 5.5657 kg/m3
293.15 K, 393.88 kPa, x1 = 0.5069	4.9713 kg/m3 and 4.9715 kg/m3
293.15 K, 469.3 kPa, x1 = 0.2658	7.4651 kg/m3
293.15 K, 568.76 kPa, x1 = 0.2658	9.1679 kg/m3
293.15 K, 613.83 kPa, x1 = 0.5069	7.885 kg/m3 and 7.8849 kg/m3
293.15 K, 655.65 kPa, x1 = 0.2658	10.6965 kg/m3 and 10.6961 kg/m3
293.15 K, 803.71 kPa, x1 = 0.5069	10.4888 kg/m3
293.15 K, 803.74 kPa, x1 = 0.5069	10.4889 kg/m3
293.15 K, 803.76 kPa, x1 = 0.5069	10.4892 kg/m3
293.15 K, 857.4 kPa, x1 = 0.2658	14.4071 kg/m3 and 14.4072 kg/m3
293.15 K, 955.25 kPa, x1 = 0.2658	16.2978 kg/m3 and 16.2977 kg/m3
293.15 K, 1006.2 kPa, x1 = 0.5069	13.3633 kg/m3
293.15 K, 1105.7 kPa, x1 = 0.2658	19.3404 kg/m3
293.15 K, 1209.4 kPa, x1 = 0.5069	16.361 kg/m3
293.15 K, 1209.7 kPa, x1 = 0.5069	16.3642 kg/m3
293.15 K, 1399.6 kPa, x1 = 0.5069	19.2776 kg/m3
293.15 K, 1605.7 kPa, x1 = 0.5069	22.5751 kg/m3
293.15 K, 1605.8 kPa, x1 = 0.5069	22.5767 kg/m3 and 22.5758 kg/m3
293.15 K, 1807.2 kPa, x1 = 0.5069	25.9502 kg/m3
294.01 K, 1223.6 kPa, x1 = 0.2658	21.7481 kg/m3
294.04 K, 1223.7 kPa, x1 = 0.2658	21.7478 kg/m3
294.06 K, 1223.9 kPa, x1 = 0.2658	21.7477 kg/m3
294.09 K, 1224 kPa, x1 = 0.2658	21.7474 kg/m3
294.12 K, 1224.2 kPa, x1 = 0.2658	21.747 kg/m3
294.15 K, 1224.3 kPa, x1 = 0.2658	21.7472 kg/m3
294.18 K, 1224.5 kPa, x1 = 0.2658	21.7471 kg/m3
294.21 K, 1224.7 kPa, x1 = 0.2658	21.7472 kg/m3
294.25 K, 1224.9 kPa, x1 = 0.2658	21.7472 kg/m3
294.28 K, 1225.2 kPa, x1 = 0.2658	21.747 kg/m3
294.32 K, 1225.4 kPa, x1 = 0.2658	21.747 kg/m3
294.37 K, 1225.6 kPa, x1 = 0.2658	21.747 kg/m3
294.41 K, 1225.9 kPa, x1 = 0.2658	21.7466 kg/m3
294.46 K, 1226.2 kPa, x1 = 0.2658	21.7464 kg/m3
294.5 K, 1226.4 kPa, x1 = 0.2658	21.7465 kg/m3
294.56 K, 1226.7 kPa, x1 = 0.2658	21.7464 kg/m3
294.61 K, 1227 kPa, x1 = 0.2658	21.746 kg/m3
294.67 K, 1227.4 kPa, x1 = 0.2658	21.7447 kg/m3
294.74 K, 1227.7 kPa, x1 = 0.2658	21.744 kg/m3
294.81 K, 1228.1 kPa, x1 = 0.2658	21.7437 kg/m3
294.88 K, 1228.5 kPa, x1 = 0.2658	21.7435 kg/m3
294.95 K, 1228.9 kPa, x1 = 0.2658	21.743 kg/m3
295.11 K, 1229.9 kPa, x1 = 0.2658	21.7426 kg/m3
295.2 K, 1230.4 kPa, x1 = 0.2658	21.7417 kg/m3
295.29 K, 1230.9 kPa, x1 = 0.2658	21.741 kg/m3
295.39 K, 1231.4 kPa, x1 = 0.2658	21.7403 kg/m3
295.5 K, 1232 kPa, x1 = 0.2658	21.7395 kg/m3
295.6 K, 1232.6 kPa, x1 = 0.2658	21.7391 kg/m3
295.72 K, 1233.3 kPa, x1 = 0.2658	21.738 kg/m3
295.84 K, 1234 kPa, x1 = 0.2658	21.7373 kg/m3
295.97 K, 1234.7 kPa, x1 = 0.2658	21.7364 kg/m3
296.1 K, 1235.4 kPa, x1 = 0.2658	21.7356 kg/m3
296.24 K, 1236.2 kPa, x1 = 0.2658	21.7346 kg/m3
296.39 K, 1237 kPa, x1 = 0.2658	21.7335 kg/m3
296.55 K, 1237.9 kPa, x1 = 0.2658	21.7324 kg/m3
296.71 K, 1238.8 kPa, x1 = 0.2658	21.731 kg/m3
296.88 K, 1239.8 kPa, x1 = 0.2658	21.7302 kg/m3
297.07 K, 1240.8 kPa, x1 = 0.2658	21.7284 kg/m3
297.26 K, 1241.9 kPa, x1 = 0.2658	21.7273 kg/m3
297.45 K, 1243 kPa, x1 = 0.2658	21.7257 kg/m3
297.66 K, 1244.1 kPa, x1 = 0.2658	21.7254 kg/m3
297.86 K, 1245.3 kPa, x1 = 0.2658	21.7253 kg/m3
298.04 K, 1246.4 kPa, x1 = 0.2658	21.7265 kg/m3
298.15 K, 1247.3 kPa, x1 = 0.2658	21.7319 kg/m3

— the NIST ThermoML archive (doi:10.1016/j.jct.2016.03.035)
